TGI data for 13 molecules are collected here from PubChem BioAssay (NCI).

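These data come from cells grown in 96-well plates and exposed to compound for 48 hours at five concentrations. TGI marks complete inhibition of growth.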 Bounds are passed on as bounds.

What all share (test): NCI anticancer screen, dose series, 48 h
In assay [1] the test system is SK-OV-3 ovarian.
The test system of assay [2] is SK-MEL-28 melanoma.
Assay [3] has as its system SF-268 CNS.
Assay [4] deals with SN12C renal.
For assay [5], the system named is UACC-257 melanoma.
Assay [6] has as its system UO-31 renal.
Assay [7] has as its system A549 NSCLC.
Assay [8] concerns CAKI-1 renal.
In assay [9] the test system is UACC-62 melanoma.
Assay [10] has as its system NCI-H460 lung.

As for `Cn1c2ccccc2c2c3c(=O)[nH][nH]c(=O)c3c3c4ccccc4n(C)c3c21`, the TGI in assay [1], in [2], in assay [3], in [4], in assay [5] and in assay [6] was over 100 µM in each case. The TGI in [7], in [8], in assay [9] and in assay [10] was over 100 µM in each case.

With `CC(C)(C)[Si](C)(C)OC1CCOC1(O)c1ccccn1` (stereo not given), the TGI in assay [1], in assay [2], in [3], in assay [4], in assay [5] and in assay [6] was over 100 µM in each case. The TGI in assay [7], in assay [8], in assay [9] and in assay [10] was over 100 µM in each case.

Take `COC(=O)Cc1c2n(c3ccccc13)C(=O)N1c3ccccc3C(CC(=O)OC)C21` (stereo not given): the TGI in [1], in [2], in assay [3], in assay [4], in assay [5] and in [6] was over 100 µM each time. Also, the TGI is over 100 µM in assay [7], over 100 µM in assay [8], over 100 µM in assay [9] and 33.6 µM in assay [10].

Regarding `O=C1c2c(Br)sc(Br)c2[C@H]2OC(=S)N[C@@H]12`, the TGI is 29.9 µM in assay [1]; 7.94 µM in [2]; 12 µM in assay [3]; 8.7 µM in assay [4]; 17.1 µM in [5]; 3.34 µM in assay [6]. For the same molecule, the TGI turned out to be 37.5 µM in assay [7], 7.81 µM in assay [8], 24.1 µM in [9] and 34.2 µM in [10].

Turning to `Cc1ccc2nc(Nc3ccccc3C)c(Nc3ccccc3C)nc2c1`, the TGI in [1] is over 100 µM; in assay [2], over 100 µM; in assay [3], over 100 µM; in assay [4] it was over 100 µM; in assay [5] it was 72.3 µM; in assay [6], 60.8 µM. The TGI in assay [7] was 49.1 µM; in assay [8] it was over 95.7 µM; in assay [9], over 90.7 µM; in assay [10] it was 45 µM.

Turning to `O=C(O)CCSc1ncnc2nc[nH]c12`, the TGI in assay [1], in assay [2], in assay [3], in assay [4], in [5] and in assay [6] was over 100 µM throughout. Also, the TGI in assay [7], in [8], in assay [9] and in [10] was over 100 µM in each case.

Regarding `CC(Br)CN(CC(C)Br)c1ccc2c(c1)Cc1ccccc1-2` (stereo not given), the TGI came to 31.1 µM in [1]; 37.3 µM in [2]; 23.3 µM in assay [3]; 26.7 µM in assay [4]; 28.1 µM in assay [5]; 24.9 µM in [6]. Moreover, the TGI in assay [7] is 24.4 µM; in assay [8], 21.1 µM; in [9] it was 24.2 µM; in [10], 9.23 µM.

Regarding `CCCCCc1cc(CCCC)sc1-c1ccco1`, the TGI in assay [1], in assay [2], in assay [3], in assay [4], in assay [5] and in [6] was over 100 µM throughout. Besides, the TGI in assay [7], in [8], in [9] and in assay [10] was over 100 µM in each case.

Turning to `C[N+]1(CCCCN2c3ccccc3Sc3cc(N=[N+]=[N-])ccc32)CCN(C(=O)CCNC(=O)Cc2ccc(C(=O)c3ccccc3)cc2)CC1`, the TGI is 62 µM in assay [1]; 46.4 µM in assay [2]; 71.5 µM in [3]; 53.5 µM in assay [4]; over 75.8 µM in [5]; 39 µM in assay [6]. Besides, the TGI was over 72.6 µM in assay [7], 57.5 µM in assay [8], over 69.2 µM in assay [9] and over 74.2 µM in assay [10].

Regarding `COc1ccccc1Cn1c2c(c3cc(O)ccc31)C(=O)c1ccccc1C2=O`, the TGI in assay [1] is 10 µM; in assay [2] it was over 100 µM; in assay [3], 86.1 µM; in assay [4] it was over 100 µM; in [5], over 100 µM; in assay [6] it was over 100 µM. Moreover, the TGI in assay [7] is over 100 µM; in assay [8] it was 69.7 µM; in assay [9] it was 82.9 µM; in assay [10] it was over 100 µM.

In the case of `O=C1c2cccnc2C(=O)c2c1nc1ccccc1c2-c1ccc2c3c(nc4ccccc42)C(=O)c2cccnc2-c13`, the TGI was 18.5 µM in [1]; 13.5 µM in [2]; 6.46 µM in assay [3]; 4.06 µM in assay [4]; 5.38 µM in [5]; 4.62 µM in [6]. Besides, the TGI worked out at 6.86 µM in [7], 10 µM in [8], 5.1 µM in [9] and 3.97 µM in assay [10].

On to `COc1ccc2c(c1)-c1nc(=S)n(CCN(C)C)c3ccc([N+](=O)[O-])c(c13)N2`, for which the TGI in assay [1] was determined as 18 µM; in assay [2], 2.88 µM; in assay [3], 2.16 µM; in assay [4], 2.05 µM; in assay [5], 5.92 µM; in assay [6] it was 13.1 µM. The TGI in [7] came out at 2.28 µM; in assay [8] it was 7.61 µM; in [9], 23.5 µM; in [10], 1.71 µM.

`OC(CCN1CCN(CCOC(c2ccc(F)cc2)c2ccc(F)cc2)CC1)c1ccc(Br)cc1` (stereo not given): the TGI in assay [1] came out at 19.8 µM; in assay [2], 7.9 µM; in assay [3] it was 17.6 µM; in assay [4], 7.12 µM; in [5] it was 4.61 µM; in assay [6], 4.67 µM. Moreover, the TGI came out at 24.1 µM in [7], 5.71 µM in [8], 12.7 µM in assay [9] and 7.37 µM in assay [10].
